The data set is described as follows: Bioaccumulation log Pow (slow stirring method). The text has this: As mentioned before. The environmental acceptability of these esterquat surfactant compounds is of essential importance for emulsion breaking operations in oil production processes.

In the case of “Dioleic acid triethanolamine esterquat [Di-oleic acid triethanolamine esterquat]”, the “bioaccumulation: log Pow” value is 0.73.
